One data set deals with A549. Put plainly: Antiproliferative activity against human A549 cells harboring wild type EGFR after 48 hrs by SRB assay. The format is cell-based. The note with it: A549, 48 h. In general terms: The SRB assay estimates cell density from bound dye.
The test system of another data set is HT-29. Put plainly: Antiproliferative activity against non-special gene type human HT-29 cells after 48 hrs by SRB assay. The format is cell-based. Conditions: HT-29, 48 h.
For the next data set, the system named is NCI-H1975. Put plainly: cells. The format is functional, cell-based. Conditions: Homo sapiens, NCI-H1975, 48 h.
Data set [1] addresses Epidermal growth factor receptor (Homo sapiens, UniProt P00533). Put plainly: Inhibition of human EGFR preincubated for 5 mins with substrate followed by ATP addition measured after 30 mins by HTRF method. The format is ADME. Background: Time-resolved FRET reads energy transfer from a long-lived donor to a nearby acceptor.
Data set [2] concerns the target Epidermal growth factor receptor (Homo sapiens, UniProt P00533, T790M).
The target of data set [3] is Tyrosine-protein kinase JAK2 (Homo sapiens) (UniProt O60674). Put plainly: Inhibition of C-terminal His6-tagged recombinant human JAK2 (808 to end residue) expressed in baculovirus infected Sf21 insect cells at 3 uM relative to control.
The target of data set [4] is Insulin receptor (Homo sapiens) (UniProt P06213). Put plainly: Inhibition of N-terminal 6His-tagged recombinant human insulin receptor (1005 to 1310 residues) expressed in baculovirus infected Sf21 insect cells at 3 uM relative to control.
The target of data set [5] is Hepatocyte growth factor receptor (Homo sapiens) (UniProt P08581). Put plainly: Inhibition of N-terminal His6-tagged recombinant human Met (974 to end residues) expressed in baculovirus infected Sf21 insect cells at 3 uM relative to control.
Data set [6] addresses Cyclin-dependent kinase 1/cyclin B1 (Homo sapiens) (UniProt P06493+P14635). Put plainly: Inhibition of C-terminal His6-tagged human full length Cdk1/N-terminal GST-tagged human full length Cyclin B expressed in baculovirus infected Sf21 insect cells at 3 uM relative to control.
The target in data set [7] is Dual specificity mitogen-activated protein kinase kinase 1 (Homo sapiens) (UniProt Q02750). Put plainly: Inhibition of recombinant human N-terminal GST-fused MEK1 expressed in Escherichia coli at 3 uM relative to control.
Dual specificity mitogen-activated protein kinase kinase 1 (Homo sapiens), sequence (Q02750 whole entry, the tested form may be a part): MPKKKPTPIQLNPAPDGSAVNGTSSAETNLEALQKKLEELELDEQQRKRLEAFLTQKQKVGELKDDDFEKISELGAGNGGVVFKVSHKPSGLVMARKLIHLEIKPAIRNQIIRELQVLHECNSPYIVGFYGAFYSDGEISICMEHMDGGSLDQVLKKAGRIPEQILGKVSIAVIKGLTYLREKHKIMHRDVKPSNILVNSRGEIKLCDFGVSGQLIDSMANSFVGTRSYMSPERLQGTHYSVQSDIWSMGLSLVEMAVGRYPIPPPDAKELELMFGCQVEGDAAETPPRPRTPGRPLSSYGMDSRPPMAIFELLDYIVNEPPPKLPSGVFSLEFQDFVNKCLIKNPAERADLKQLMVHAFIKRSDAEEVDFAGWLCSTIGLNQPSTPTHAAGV
Data set [8] deals with Focal adhesion kinase 1 (Homo sapiens) (UniProt Q05397). Put plainly: Inhibition of N-terminal 6His-tagged recombinant human FAK (411 to 686 residues) expressed in baculovirus infected Sf21 insect cells at 3 uM relative to control.
Focal adhesion kinase 1 (Homo sapiens), sequence (Q05397 2-1052 limits assumed): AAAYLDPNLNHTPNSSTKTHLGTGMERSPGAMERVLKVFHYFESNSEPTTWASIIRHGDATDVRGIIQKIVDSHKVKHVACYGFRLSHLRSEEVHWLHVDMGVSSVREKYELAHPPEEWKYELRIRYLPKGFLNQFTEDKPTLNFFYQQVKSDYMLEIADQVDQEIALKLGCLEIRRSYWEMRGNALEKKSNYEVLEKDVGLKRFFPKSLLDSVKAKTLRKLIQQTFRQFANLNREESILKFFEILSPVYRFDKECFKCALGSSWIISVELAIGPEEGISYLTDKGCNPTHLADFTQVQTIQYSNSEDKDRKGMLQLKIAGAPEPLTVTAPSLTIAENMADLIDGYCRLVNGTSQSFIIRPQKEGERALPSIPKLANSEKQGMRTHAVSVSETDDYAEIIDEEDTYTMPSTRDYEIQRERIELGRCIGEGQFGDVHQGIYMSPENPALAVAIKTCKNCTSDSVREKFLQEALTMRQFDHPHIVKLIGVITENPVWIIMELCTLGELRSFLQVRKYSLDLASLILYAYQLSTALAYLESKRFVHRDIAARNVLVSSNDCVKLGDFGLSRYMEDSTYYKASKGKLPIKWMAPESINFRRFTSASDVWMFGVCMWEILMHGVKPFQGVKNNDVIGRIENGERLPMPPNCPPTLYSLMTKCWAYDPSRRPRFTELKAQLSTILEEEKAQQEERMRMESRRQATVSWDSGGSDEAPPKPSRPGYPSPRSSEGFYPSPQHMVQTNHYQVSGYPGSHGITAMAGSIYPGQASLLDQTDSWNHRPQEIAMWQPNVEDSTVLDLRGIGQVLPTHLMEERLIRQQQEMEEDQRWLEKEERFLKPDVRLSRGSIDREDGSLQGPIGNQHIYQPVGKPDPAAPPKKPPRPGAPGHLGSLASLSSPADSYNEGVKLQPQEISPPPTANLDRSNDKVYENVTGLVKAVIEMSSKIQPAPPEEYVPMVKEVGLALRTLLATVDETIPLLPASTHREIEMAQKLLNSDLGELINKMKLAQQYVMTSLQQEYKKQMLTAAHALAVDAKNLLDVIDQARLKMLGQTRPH
Data set [9] addresses 5'-AMP-activated protein kinase catalytic subunit alpha-1 (Homo sapiens) (UniProt Q13131). Put plainly: Inhibition of full length recombinant human C-terminal His-tagged AMPKalpha1 expressed in Spodoptera frugiperda insect cells at 3 uM relative to control.
The target of data set [10] is Mast/stem cell growth factor receptor Kit (Homo sapiens) (UniProt P10721). Put plainly: Inhibition of N-terminal GST tagged recombinant human c-Kit (544 to end residues) expressed in baculovirus infected Sf21 insect cells at 3 uM relative to control.
In data set [11] the target is Aurora kinase A (Homo sapiens) (UniProt O14965). Put plainly: Inhibition of N-terminal His6-tagged recombinant full-length human Aurora A expressed in Sf21 insect cells at 3 uM relative to control.
Data set [12] concerns the target Vascular endothelial growth factor receptor 2 (Homo sapiens) (UniProt P35968). Put plainly: Inhibition of recombinant human VEGFR-2 at 3 uM relative to control.
Data set [13] has as its target Fibroblast growth factor receptor 1 (Homo sapiens) (UniProt P11362). Put plainly: Inhibition of N-terminal GST-tagged recombinant human FGFR1 (456 to 765 residues) expressed in baculovirus infected Sf21 insect cells at 3 uM relative to control.
In data set [14] the target is Receptor-type tyrosine-protein kinase FLT3 (Homo sapiens) (UniProt P36888). Put plainly: Inhibition of N-terminal GST tagged recombinant human Flt3 (564 to end residues) at 3 uM relative to control.
The target in data set [15] is Tyrosine-protein kinase ABL1 (Homo sapiens) (UniProt P00519). Put plainly: Inhibition of N-terminal His6-tagged recombinant human Abl (27 to end residues) expressed in baculovirus infected Sf21 insect cells at 3 uM relative to control.
For data set [16], the target named is EGFR (epidermal growth factor receptor) kinase domain (Homo sapiens, UniProt P00533). Put plainly: Inhibition of N-terminal GST-tagged human EGFR kinase domain (696 to end residues) expressed in baculovirus infected Sf21 insect cells at 3 uM relative to control.
Data set [17] deals with LKB1-STRAD-MO25 complex (Homo sapiens) (UniProt Q15831+Q7RTN6+Q9Y376). Put plainly: Inhibition of recombinant full-length N-terminal 6-His-tagged human LKB1/GST-tagged MO25alpha/GST-tagged STRADalpha expressed in SF21 cells at 3 uM relative to control.
Data set [18] has as its target Insulin-like growth factor 1 receptor (Homo sapiens) (UniProt P08069). Put plainly: Inhibition of N-terminal 6His-tagged recombinant human IGF-1R (959 to end residues) expressed in baculovirus infected Sf21 insect cells at 3 uM relative to control.
Data set [19] deals with Tyrosine-protein kinase Blk (Homo sapiens) (UniProt P51451). Put plainly: Inhibition of human N-terminal His6 tagged recombinant full-length human Blk expressed in Sf21 insect cells at 3 uM relative to control.
Tyrosine-protein kinase Blk (Homo sapiens), sequence (P51451 2-505 limits assumed): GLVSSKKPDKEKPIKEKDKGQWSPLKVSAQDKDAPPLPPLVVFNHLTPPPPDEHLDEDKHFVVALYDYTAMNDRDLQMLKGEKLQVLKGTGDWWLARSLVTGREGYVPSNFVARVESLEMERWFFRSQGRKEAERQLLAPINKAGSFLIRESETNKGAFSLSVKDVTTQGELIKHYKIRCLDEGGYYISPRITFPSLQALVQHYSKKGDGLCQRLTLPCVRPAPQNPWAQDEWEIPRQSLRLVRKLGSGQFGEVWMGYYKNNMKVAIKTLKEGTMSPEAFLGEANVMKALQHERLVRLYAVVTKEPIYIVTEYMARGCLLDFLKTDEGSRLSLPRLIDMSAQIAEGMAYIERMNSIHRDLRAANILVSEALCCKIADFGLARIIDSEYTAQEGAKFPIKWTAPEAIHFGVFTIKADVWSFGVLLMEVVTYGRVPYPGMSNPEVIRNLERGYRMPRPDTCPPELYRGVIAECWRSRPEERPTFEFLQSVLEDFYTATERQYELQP
Data set [20] deals with Tyrosine-protein kinase SYK (Homo sapiens) (UniProt P43405). Put plainly: Inhibition of recombinant full length N-terminal His6-tagged human SYK expressed in baculovirus infected Sf21 insect cells at 3 uM relative to control.
Data set [21] deals with Vascular endothelial growth factor receptor 1 (Homo sapiens) (UniProt P17948). Put plainly: Inhibition of recombinant human VEGFR-1 expressed in Spodoptera frugiperda insect cells at 3 uM relative to control.

This is an account of results in ChEMBL document CHEMBL4024718, “Design and synthesis of quinazolinones as EGFR inhibitors to overcome EGFR resistance obstacle” (Bioorg Med Chem, 2017).

Epidermal growth factor receptor (Homo sapiens, UniProt P00533, T790M), sequence (P00533 25-1210 T790M limits assumed): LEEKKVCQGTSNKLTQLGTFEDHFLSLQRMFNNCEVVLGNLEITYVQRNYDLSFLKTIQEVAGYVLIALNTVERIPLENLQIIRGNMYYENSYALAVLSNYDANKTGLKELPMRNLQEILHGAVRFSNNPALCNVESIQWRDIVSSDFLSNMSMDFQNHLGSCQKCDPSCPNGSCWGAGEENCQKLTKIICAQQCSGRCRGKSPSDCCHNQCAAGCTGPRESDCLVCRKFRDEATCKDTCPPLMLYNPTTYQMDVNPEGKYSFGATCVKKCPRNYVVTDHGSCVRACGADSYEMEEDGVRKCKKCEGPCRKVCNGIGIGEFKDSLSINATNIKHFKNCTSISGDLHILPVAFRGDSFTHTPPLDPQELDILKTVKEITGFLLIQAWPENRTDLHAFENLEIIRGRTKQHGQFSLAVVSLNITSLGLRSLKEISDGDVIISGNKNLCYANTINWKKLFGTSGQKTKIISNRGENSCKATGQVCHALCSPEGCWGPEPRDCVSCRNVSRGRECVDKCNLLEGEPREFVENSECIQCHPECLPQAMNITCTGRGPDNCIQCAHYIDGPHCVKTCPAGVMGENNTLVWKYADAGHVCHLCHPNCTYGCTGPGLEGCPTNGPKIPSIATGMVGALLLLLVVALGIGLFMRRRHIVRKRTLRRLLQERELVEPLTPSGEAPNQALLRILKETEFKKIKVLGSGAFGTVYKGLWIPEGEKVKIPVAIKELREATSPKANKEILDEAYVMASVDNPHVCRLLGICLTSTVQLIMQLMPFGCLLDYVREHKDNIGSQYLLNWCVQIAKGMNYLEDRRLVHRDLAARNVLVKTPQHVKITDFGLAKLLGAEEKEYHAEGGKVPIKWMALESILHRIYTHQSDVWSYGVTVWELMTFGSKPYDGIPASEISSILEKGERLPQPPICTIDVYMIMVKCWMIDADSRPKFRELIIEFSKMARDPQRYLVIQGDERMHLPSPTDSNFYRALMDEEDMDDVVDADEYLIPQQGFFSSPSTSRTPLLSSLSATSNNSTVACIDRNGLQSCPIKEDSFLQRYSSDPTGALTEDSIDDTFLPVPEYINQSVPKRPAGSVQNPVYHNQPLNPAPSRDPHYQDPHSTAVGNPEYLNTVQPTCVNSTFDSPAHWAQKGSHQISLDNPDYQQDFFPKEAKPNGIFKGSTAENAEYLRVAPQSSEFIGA
Epidermal growth factor receptor (Homo sapiens, UniProt P00533), sequence (P00533 whole entry): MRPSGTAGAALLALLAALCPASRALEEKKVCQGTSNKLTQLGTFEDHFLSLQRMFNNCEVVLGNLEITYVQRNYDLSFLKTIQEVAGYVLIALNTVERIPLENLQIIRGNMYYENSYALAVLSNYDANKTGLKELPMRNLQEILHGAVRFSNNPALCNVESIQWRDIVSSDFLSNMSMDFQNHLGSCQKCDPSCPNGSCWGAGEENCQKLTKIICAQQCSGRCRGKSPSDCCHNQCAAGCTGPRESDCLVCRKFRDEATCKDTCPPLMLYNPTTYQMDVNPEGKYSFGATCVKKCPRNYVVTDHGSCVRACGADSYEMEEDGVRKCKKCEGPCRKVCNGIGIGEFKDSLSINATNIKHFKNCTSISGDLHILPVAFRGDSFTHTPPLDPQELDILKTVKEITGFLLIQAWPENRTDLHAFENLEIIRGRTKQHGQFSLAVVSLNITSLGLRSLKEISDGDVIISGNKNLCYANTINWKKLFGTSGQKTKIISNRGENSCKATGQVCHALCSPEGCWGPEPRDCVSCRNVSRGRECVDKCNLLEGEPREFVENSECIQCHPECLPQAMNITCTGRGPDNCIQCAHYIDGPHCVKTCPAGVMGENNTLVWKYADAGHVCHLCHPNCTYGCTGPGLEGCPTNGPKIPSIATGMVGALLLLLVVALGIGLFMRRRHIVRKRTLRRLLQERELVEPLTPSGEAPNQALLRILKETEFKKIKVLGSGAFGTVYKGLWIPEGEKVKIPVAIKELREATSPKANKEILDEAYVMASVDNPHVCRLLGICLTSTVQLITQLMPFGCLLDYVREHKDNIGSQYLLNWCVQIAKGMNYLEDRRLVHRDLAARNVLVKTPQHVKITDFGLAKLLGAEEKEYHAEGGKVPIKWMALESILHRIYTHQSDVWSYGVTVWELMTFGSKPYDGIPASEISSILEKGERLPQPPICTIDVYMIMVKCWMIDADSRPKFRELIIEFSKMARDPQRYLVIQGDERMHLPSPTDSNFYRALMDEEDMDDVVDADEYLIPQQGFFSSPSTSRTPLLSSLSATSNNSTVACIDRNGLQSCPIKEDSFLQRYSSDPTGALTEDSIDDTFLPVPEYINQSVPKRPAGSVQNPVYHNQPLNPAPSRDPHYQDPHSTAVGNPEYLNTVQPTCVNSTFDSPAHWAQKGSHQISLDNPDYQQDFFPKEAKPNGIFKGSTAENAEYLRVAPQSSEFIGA
5'-AMP-activated protein kinase catalytic subunit alpha-1 (Homo sapiens), sequence (Q13131 whole entry, looked up): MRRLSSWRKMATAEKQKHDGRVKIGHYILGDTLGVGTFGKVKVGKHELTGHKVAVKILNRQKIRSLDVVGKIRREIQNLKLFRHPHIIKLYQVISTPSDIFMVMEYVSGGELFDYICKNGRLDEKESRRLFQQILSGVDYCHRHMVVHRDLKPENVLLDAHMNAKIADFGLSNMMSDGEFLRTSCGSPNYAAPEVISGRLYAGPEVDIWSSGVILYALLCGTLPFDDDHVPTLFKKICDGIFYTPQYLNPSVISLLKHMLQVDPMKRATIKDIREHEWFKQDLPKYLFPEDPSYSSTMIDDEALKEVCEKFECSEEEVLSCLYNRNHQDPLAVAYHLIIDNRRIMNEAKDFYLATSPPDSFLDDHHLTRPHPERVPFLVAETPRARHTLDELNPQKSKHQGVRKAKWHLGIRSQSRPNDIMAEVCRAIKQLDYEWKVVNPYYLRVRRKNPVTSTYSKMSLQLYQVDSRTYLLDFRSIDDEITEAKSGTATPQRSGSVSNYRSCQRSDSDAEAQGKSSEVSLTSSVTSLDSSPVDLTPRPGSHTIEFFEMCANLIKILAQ

The term IC50 denotes the midpoint of a concentration-inhibition curve. Lower therefore signals inhibition by little substance. With `Nc1ccccc1-n1c(-c2ccccc2)nc2cc(Cl)ccc2c1=O`, the IC50 was found to be 18.3 µM with A549, 50 µM with HT-29 and 4.87 µM in the data set with NCI-H1975.

For `O=c1c2ccccc2nc(-c2ccccc2)n1-c1ccc(F)c(Cl)c1`, the figures for the IC50 in the data set with A549, in the data set with HT-29 and in the data set with NCI-H1975 were 5.42 µM, 6.12 µM and 4.89 µM, respectively.

Turning to `O=C(Nc1cc(Cl)ccc1C(=O)NCc1ccccc1)c1ccccc1`, the IC50 came to 1.57 µM with A549, 4.8 µM with HT-29 and 1.67 µM in the data set on NCI-H1975.

In the case of `O=c1c2ccc(Cl)cc2nc(-c2ccccc2)n1-c1cccc(Cl)c1`, the IC50 with A549 was 5.3 µM; in the data set on HT-29, 4.5 µM; in the data set on NCI-H1975, 2.45 µM.

For the molecule `O=C(Nn1c(-c2ccccc2)nc2ccccc2c1=O)c1ccc(Br)cc1`, the IC50 in data set [1] is 0.42 µM; in the data set on A549, 0.523 µM; in [2], 0.78 µM; in the data set with HT-29 it was 1.15 µM; in the data set on NCI-H1975, 0.81 µM.

In the case of `C=CC(=O)Nc1cccc(Oc2nc(Nc3ccc(N4CCN(C)CC4)cc3OC)ncc2Cl)c1`, in the data set with A549, the IC50 amounted to 1.87 µM.

In general, inhibition refers to how much of the control response was suppressed. On to `COc1ccc(-c2nnc(-n3c(-c4ccccc4)nc4cc(Cl)ccc4c3=O)s2)cc1`, for which the inhibition in data set [3], in data set [4], in data set [5], in data set [6], in [7] and in data set [8] was 0% throughout. The inhibition in data set [9] is 0%; in data set [10], 0%; in data set [11] it was 0%; in [12] it was 42%; in data set [13], 0%; in data set [14], 0%. The inhibition was 0% in data set [15]; 0% in [17]; 10% in [18]; 0% in data set [19]; 0% in data set [20]; 0 to 34% in data set [21]. Also, the IC50 in data set [1] was determined as 0.32 µM; in the data set with A549, 0.39 µM; in [2] it was 0.021 µM; in the data set with HT-29, 0.388 µM; in the data set with NCI-H1975 it was 0.031 µM. In data set [16], this molecule came in with an inhibition at 3 µM of 78%.

Consider `COc1ccc(-n2c(-c3ccccc3)nc3cc(Cl)ccc3c2=O)cc1`, for which the IC50 with A549 was 2.87 µM; with HT-29, 3.92 µM; in the data set on NCI-H1975, 2.88 µM.

As to `O=c1c2ccc(Cl)cc2nc(-c2ccccc2)n1-c1cccnc1`, the figures for the IC50 with A549, in the data set on HT-29 and in the data set on NCI-H1975 were 3.33 µM, 3.8 µM and 2.45 µM, respectively.

With `Cc1nnc(-n2c(-c3ccccc3)nc3cc(Cl)ccc3c2=O)s1`, the results for the IC50 in the data set on A549, in the data set with HT-29 and in the data set on NCI-H1975 were 3.79 µM, 21.2 µM and 0.76 µM, respectively.

For `O=C(Nc1cc(Cl)ccc1C(=O)Nc1ccc(F)cc1)c1ccccc1`, the IC50 in the data set on A549 is 17.4 µM; with HT-29, 3.36 µM; with NCI-H1975 it was 14.4 µM.

On to `O=c1c2ccc(Cl)cc2nc(-c2ccccc2)n1-c1nnc(C2CC2)s1`, for which the IC50 in data set [1] was found to be 0.53 µM; in the data set with A549, 0.717 µM; in [2], 0.102 µM; in the data set on HT-29, 0.732 µM; in the data set with NCI-H1975, 0.129 µM.

For `O=c1c2ccccc2nc(-c2ccccc2)n1-c1nnc(-c2ccccc2Cl)s1`, the IC50 in data set [1] worked out at 78.2 µM; in the data set on A549 it was 100 µM; in data set [2], 7.23 µM; in the data set on HT-29, 32.5 µM; in the data set on NCI-H1975 it was 5.23 µM.

With `O=c1c2ccccc2nc(-c2ccccc2)n1-c1nnc(C2CC2)s1`, the IC50 in the data set with A549 came out at 3.02 µM; in the data set on HT-29, 3.46 µM; in the data set with NCI-H1975, 2.38 µM.

With `O=c1c2ccc(Cl)cc2nc(-c2ccccc2)n1-c1nnc(-c2ccccc2)s1`, the concentration for half-maximal inhibition (IC50) was determined as 1.68 µM in [1]; 2.09 µM with A549; 1.12 µM in [2]; 2.72 µM with HT-29; 0.213 µM in the data set with NCI-H1975.

With `CC(=O)c1ccccc1-n1c(-c2ccccc2)nc2cc(Cl)ccc2c1=O`, the IC50 in data set [1] was found to be 34.3 µM; with A549 it was 50 µM; in data set [2] it was 0.72 µM; with HT-29, 50 µM; with NCI-H1975, 0.846 µM.

In the case of `NCCn1c(-c2ccccc2)nc2cc(Cl)ccc2c1=O`, the IC50 worked out at 2.11 µM in [1]; 2.45 µM in the data set on A549; 0.287 µM in [2]; 0.428 µM in the data set on HT-29; 0.378 µM in the data set with NCI-H1975.
